Data on two compounds can be found in patent US9937204B2 (priority 2008, dated 2018).

In assay [1] the test system is non-albicans isolates. As to conditions: out of 100 non-albicans isolates from HIV patients with thrush; cited from earlier work.
In assay [2] the test system is Candida species. Nature of the assay: Time-kill assay, all species together. Particulars: chlorhexidine gluconate concentrations tested (0.015-0.12%); within one minute of exposure. Type of assay: cell-based. As for the experimental part:
Following exposure, 100 μl aliquots were diluted 50% with 0.85% saline and plated onto potato dextrose agar plates. The aliquots were allowed to dry and then were streaked to remove the yeast from the compound. The plates were incubated at 35° C. for 24 hours. Colony counts were taken and were compared to initial inoculum. The same test was done treating the four Candida species with chlorhexidine gluconate at concentrations ranging from 0.015-0.12%. Chlorhexidine gluconate at concentration 0.12% is commonly prescribed to patients with oral disease.

As to `OC(Cn1cncn1)(Cn1cncn1)c1ccc(F)cc1F` [fluconazole], the “Number of isolates resistant” value in assay [1] is 88. As to `N=C(NCCCCCCNC(=N)NC(=N)Nc1ccc(Cl)cc1)NC(=N)Nc1ccc(Cl)cc1.O=C(O)[C@H](O)[C@@H](O)[C@H](O)[C@H](O)CO.O=C(O)[C@H](O)[C@@H](O)[C@H](O)[C@H](O)CO` [chlorhexidine gluconate, Chlorhexidine gluconate], the “Time-kill result in words (colony count)” value in assay [2] is reported as “did not reduce the colony count”.
